{"source": "paper PMC8836147", "about": "“Design, Synthesis and Antifungal/Nematicidal Activity of Novel 1,2,4-Oxadiazole Derivatives Containing Amide Fragments” (International Journal of Molecular Sciences, 2022)", "key": {"MTT cytotoxicity assay": {"experiment": "MTT cytotoxicity assay", "type": "cell-based", "details": "human, L-02 normal liver cells, L-02 cells", "method": "The human liver L-02 cells were obtained from the biology laboratory in Key Laboratory of Chemistry for Natural Products of Guizhou Province and Chinese Academy of Sciences (Guiyang, China). The cells were grown in Dulbecco’s Modified Eagle’s Medium (supplemented with 10% (v/v) FBS, 100 U/mL penicillin, and 100 μg/mL streptomycin) at 37 °C in a CO2 incubator (5% CO2 and 95% air, 95% humidity). The effect of some compounds on cell viability was determined with the MTT assay according to the previously published literature. A total of 5000 cells were inoculated in a 96-well plate and three wells of each concentration of test compound were used. A total of 24 h after inoculation, the cells had grown to ~60% confluency, and different concentrations of compounds were added, and then the cells were cultured for 48 h. DMSO was used as the control. A total of 20 μL of MTT solution was added to each well and incubated at 37 °C for 4 h. Formazan crystals were dissolved in 150 μL of DMSO and quantified using a microplate reader (Thermo Scientific, Vario Skan Flash, Shanghai Bio-Gene Technology Co., LTD, Shanghai, China) at 490 nm. The cytotoxicity was calculated according to following formula:Cytotoxicity (%) = [(OCK − OT)/OCK] × 100%(2) where OCK represents the optical density (OD) value of the blank control group, and OT represents the OD value of experimental group."}, "A. besseyi": {"system": "A. besseyi", "experiment": "microbe, parasite or virus in culture", "details": "Aphelenchoides besseyi, 48 h, read-out: Corrected Mortality Rate ± SD (%) A. besseyi", "from_the_text": "(§1) M. incognita (parasitic on tomato plants), A. besseyi (potato dextrose agar–Botrytis cinerea breeding), B. xylophilus (potato dextrose agar–Botrytis cinerea breeding), and C. elegans (nematode growth medium–inactivated Escherichia coli OP50 cultivation) were provided by the Fine Chemical Research and Development Center of Guizhou University (Guizhou, China). The methodology used for the nematocidal bioassays of these target compounds was modified in the light of the conventional methods reported in the previously published literature. The nematicidal activity of the target compounds against four nematodes was determined using 48-well biochemical culture dishes. All of the compounds were dissolved with 100 μL DMF and were diluted with 1% Tween-80 to obtain 200 and 50 μg/mL concentrations for the bioassays. Fosthiazate and tioxazafen were used as positive controls at the same concentrations, and a negative control group was prepared without compounds using the same methodology. An amount of 10 µL of nematode suspension (about 50 nematodes) and 300 µL of the trial solution were added to corresponding hole, and each treatment was set to three repetitions. All of the 48-well plates were placed in a biochemical incubator at 27 °C for dark light culture. […] Corrected mortality (%) = [(mortality of treatment % − mortality of negative control %)/(1 − mortality of negative control %)] × 100%(3)"}, "M. incognita": {"system": "M. incognita", "experiment": "microbe, parasite or virus in culture", "details": "Meloidogyne incognita, 48 h, read-out: Corrected Mortality Rate ± SD (%) M. incognita", "from_the_text": "as §1"}, "C. elegans": {"system": "C. elegans", "experiment": "microbe, parasite or virus in culture", "details": "Caenorhabditis elegans, 48 h, read-out: Corrected Mortality Rate ± SD (%) C. elegans", "from_the_text": "as §1"}, "B. xylophilus": {"system": "B. xylophilus", "experiment": "microbe, parasite or virus in culture", "details": "Bursaphelenchus xylophilus, 48 h, read-out: Corrected Mortality Rate ± SD (%) B. xylophilus", "from_the_text": "as §1"}, "S. sclerotiorum [1]": {"system": "S. sclerotiorum", "experiment": "In vivo curative activity assay on infected cole leaves", "parameters": "species or system Sclerotinia sclerotiorum", "details": "sprayed 24 h after inoculation, 72 h", "from_the_text": "(§2) Susceptible cole leaves collected from Guizhou Academy of Agricultural Sciences were used to determine the in vivo efficacy of F15 according to previous literature. […] Vaccination time was used to distinguish between the protective activity assays and curative activity assays. A 5 mm mycelia dish was placed at the widest center of the cole leaf, and it was ensured that it was not placed on the main vein of the leaf. For the protective activity assay, test compounds with different concentrations were sprayed on the leaves until the liquid reached the surface. Inoculation was conducted after 24 h. For the curative activity assay, which took place 24 h after inoculation, compounds of different concentrations were sprayed on the surfaces of the leaves until the liquid flowed. Fluopyram and sterile distilled water were used as a positive control and negative control, respectively. All of the inoculated leaves were placed inside of a 25 °C light incubator with 85% relative humidity and a 16 h photoperiod for disease development. The average diameters of the lesions were measured using the cross method after 72 h. The disease control efficacy was obtained through the following formula:Control efficacy (%) = (1 − DT/DCK) × 100%(4) where DCK represents the lesion diameter of the sterile distilled water control, and DT represents the lesion diameters of the treatment samples. Each test was carried out five times, and the experiment was performed three times."}, "B. cinerea": {"system": "B. cinerea", "experiment": "In vitro mycelium growth inhibition test", "type": "cell-based", "details": "Botrytis cinerea; 50 μg/mL; mycelial growth; mean ± SD of three replicates; read-out: Inhibition Rate (%) B. cinerea", "method": "(§3) B. cinerea and S. scleotiorum were kindly provided by the Department of Pesticides, College of Plant Protection, Nanjing Agricultural University (Nanjing, China). All compounds were evaluated for mycelium growth inhibition tests against the two plant pathogenic fungi mentioned in previous reports. These two fungi were inoculated on potato dextrose agar (PDA) plates and were grown in biochemical incubators at 25 ± 1 °C for 2–4 days. The new mycelium was used to determine the antifungal activity. The target compounds were dissolved in 100 µL DMF, and they were then added into the PDA media to make the concentration 50 µg/mL. Mycelia dishes of about 5 mm in diameter were cut from the culture medium. Mycelium were picked up with a sterile inoculation needle, and the sample was inoculated in the middle of a PDA plate in a sterile environment. Afterwards, a preliminary screening of fungal activity was performed. […] Each test was carried out three times. The radial growth of the fungal colonies was gauged and recorded when the diameters of the blank control mycelia reached 5.0–5.5 cm. […] The final data were analyzed using SPSS v.25.0 (IBM, New York, NY, USA). The following formula was used to calculate the fungi inhibition rate. Inhibition rate (%) = [(Mycelium diameter of negative control − Mycelium diameter of treatment)/(Mycelium diameter of negative control − 0.5)] × 100%(1)"}, "S. sclerotiorum [2]": {"system": "S. sclerotiorum", "experiment": "In vitro mycelium growth inhibition test", "type": "cell-based", "details": "Sclerotinia sclerotiorum, mycelial growth, mean ± SD of three replicates; for inhibition at 50 µg/mL: 50 μg/mL, read-out: Inhibition Rate (%) S. sclerotiorum; for EC50: read-out: EC50 against S. sclerotiorum", "method": "as §3"}, "S. sclerotiorum [3]": {"system": "S. sclerotiorum", "experiment": "In vivo protective activity assay on infected cole leaves", "parameters": "species or system Sclerotinia sclerotiorum", "details": "sprayed 24 h before inoculation, 72 h", "from_the_text": "as §2"}}, "data": [{"molecule": "O=C(NCCc1ncc(C(F)(F)F)cc1Cl)c1ccccc1C(F)(F)F", "note": "[Fluopyram, fluopyram, reference compound]", "values": [{"measurement": "cytotoxicity at 48 h, 50 μg/mL", "setting": "MTT cytotoxicity assay", "value": "3.8 ± 2.5", "unit": "%"}, {"measurement": "cytotoxicity at 48 h, 100 μg/mL", "setting": "MTT cytotoxicity assay", "value": "40.1 ± 1.2", "unit": "%"}, {"measurement": "cytotoxicity at 48 h, 200 μg/mL", "setting": "MTT cytotoxicity assay", "value": "55.1 ± 0.4", "unit": "%"}, {"measurement": "mortality at 50 µg/mL", "setting": "A. besseyi", "value": 100, "unit": "%"}, {"measurement": "mortality at 200 µg/mL", "setting": "A. besseyi", "value": 100, "unit": "%"}, {"measurement": "mortality at 50 µg/mL", "setting": "M. incognita", "value": 100, "unit": "%"}, {"measurement": "mortality at 200 µg/mL", "setting": "M. incognita", "value": 100, "unit": "%"}, {"measurement": "mortality at 50 µg/mL", "setting": "C. elegans", "value": 100, "unit": "%"}, {"measurement": "mortality at 200 µg/mL", "setting": "C. elegans", "value": 100, "unit": "%"}, {"measurement": "mortality at 50 µg/mL", "setting": "B. xylophilus", "value": 100, "unit": "%"}, {"measurement": "mortality at 200 µg/mL", "setting": "B. xylophilus", "value": 100, "unit": "%"}, {"measurement": "Curative Effect Control Efficacy (%)", "setting": "S. sclerotiorum [1]; 25 μg/mL", "value": 65.0, "unit": "%"}, {"measurement": "Curative Effect Lesion Length", "setting": "S. sclerotiorum [1]; 25 μg/mL", "value": "7.7 ± 0.6", "unit": "mm"}, {"measurement": "Curative Effect Control Efficacy (%)", "setting": "S. sclerotiorum [1]; 50 μg/mL", "value": 71.4, "unit": "%"}, {"measurement": "Curative Effect Lesion Length", "setting": "S. sclerotiorum [1]; 50 μg/mL", "value": "6.3 ± 0.2", "unit": "mm"}, {"measurement": "Curative Effect Control Efficacy (%)", "setting": "S. sclerotiorum [1]; 100 μg/mL", "value": 74.1, "unit": "%"}, {"measurement": "Curative Effect Lesion Length", "setting": "S. sclerotiorum [1]; 100 μg/mL", "value": "5.7 ± 0.6", "unit": "mm"}, {"measurement": "inhibition at 50 µg/mL", "setting": "B. cinerea", "value": "87.3 ± 0.6", "unit": "%"}, {"measurement": "inhibition at 50 µg/mL", "setting": "S. sclerotiorum [2]", "value": "93.7 ± 1.7", "unit": "%"}, {"measurement": "EC50", "setting": "S. sclerotiorum [2]", "value": "1.2 ± 1.6", "unit": "µg/mL"}, {"measurement": "Protective Effect Control Efficacy (%)", "setting": "S. sclerotiorum [3]; 25 μg/mL", "value": 66.8, "unit": "%"}, {"measurement": "Protective Effect Lesion Length", "setting": "S. sclerotiorum [3]; 25 μg/mL", "value": "7.9 ± 0.1", "unit": "mm"}, {"measurement": "Protective Effect Control Efficacy (%)", "setting": "S. sclerotiorum [3]; 50 μg/mL", "value": 69.3, "unit": "%"}, {"measurement": "Protective Effect Lesion Length", "setting": "S. sclerotiorum [3]; 50 μg/mL", "value": "7.3 ± 0.2", "unit": "mm"}, {"measurement": "Protective Effect Control Efficacy (%)", "setting": "S. sclerotiorum [3]; 100 μg/mL", "value": 75.6, "unit": "%"}, {"measurement": "Protective Effect Lesion Length", "setting": "S. sclerotiorum [3]; 100 μg/mL", "value": "5.8± 0.1", "unit": "mm"}]}, {"molecule": "O=C(NCCc1ncc(C(F)(F)F)cc1Cl)c1nc(-c2cccs2)no1", "note": "[Compound F14]", "values": [{"measurement": "cytotoxicity at 48 h, 50 μg/mL", "setting": "MTT cytotoxicity assay", "value": "18.8 ± 2.5", "unit": "%"}, {"measurement": "cytotoxicity at 48 h, 100 μg/mL", "setting": "MTT cytotoxicity assay", "value": "21.4 ± 5", "unit": "%"}, {"measurement": "cytotoxicity at 48 h, 200 μg/mL", "setting": "MTT cytotoxicity assay", "value": "39.1 ± 8.4", "unit": "%"}, {"measurement": "mortality at 50 µg/mL", "setting": "A. besseyi", "value": 0, "unit": "%"}, {"measurement": "mortality at 200 µg/mL", "setting": "A. besseyi", "value": "27 ± 0.8", "unit": "%"}, {"measurement": "mortality at 50 µg/mL", "setting": "M. incognita", "value": 0, "unit": "%"}, {"measurement": "mortality at 200 µg/mL", "setting": "M. incognita", "value": "12.3 ± 2.3", "unit": "%"}, {"measurement": "mortality at 50 µg/mL", "setting": "C. elegans", "value": "70 ± 0.6", "unit": "%"}, {"measurement": "mortality at 200 µg/mL", "setting": "C. elegans", "value": 100, "unit": "%"}, {"measurement": "mortality at 50 µg/mL", "setting": "B. xylophilus", "value": 0, "unit": "%"}, {"measurement": "mortality at 200 µg/mL", "setting": "B. xylophilus", "value": "6.9 ± 1.8", "unit": "%"}, {"measurement": "inhibition at 50 µg/mL", "setting": "B. cinerea", "value": "36.4 ± 0.2", "unit": "%"}, {"measurement": "inhibition at 50 µg/mL", "setting": "S. sclerotiorum [2]", "value": "65.2 ± 0.2", "unit": "%"}, {"measurement": "EC50", "setting": "S. sclerotiorum [2]", "value": "15.3 ± 1.3", "unit": "µg/mL"}]}]}
